Source: US12275729B2 (Merck Sharp & Dohme LLC, priority 2017, dated 2025)

What was measured:
IDO1 [1] = molecular target: T1, IDO1 (Homo sapiens, UniProt P14902); test: IDO1 Human Whole Blood Assay; type: cell-based; set-up: Human whole blood was drawn in sodium heparin coated tubes from healthy internal donors; from tissue; host or cells: human whole blood from healthy donors, stimulated with LPS and IFNγ; conditions: LPS and IFNγ stimulated
Experimental: IDO1 Human Whole Blood Assay
Compounds to be tested were serially diluted in ten 3-fold steps in DMSO starting from 10 mM. […] LPS and IFNγ was prepared in RPMI to a 10× of final conc. (1000 ng/mL), final concentration is 100 ng/mL.
Human whole blood was drawn in sodium heparin coated tubes from healthy internal donors. 240 μL of blood was transferred to each of the wells of a v-bottom 96 well plate. 30 μL of compound was transferred from intermediate dilution plate, and incubated for 15 min. 30 μL from stimulants was then transferred to blood and mixed thoroughly.
On day 2 isotope labeled standard of kynurenine and tryptophan was made in water at 1Ox concentration and 30 μL was added to the blood at […] final concentration. The assay plates were centrifuged at 300×G for 10 min with no brake to separate plasma from red blood cells. 60 μL of plasma samples was removed without disturbing red blood cells. Plasma was diluted with RPMI in 1:1 ratio and proteins were precipitated out with two volume of Acetonitrile. The plates were centrifuged at 4000×G for 60 min. 20 μL of supernatant was carefully transferred to a 384 well plate contain 40 μL of 0.1% formic acid in water and analyzed by LC/MS/MS.
LC/MS/MS analyses were performed using Thermo Fisher's LX4-TSQ Quantum Ultra system. This system consists of four Agilent binary high-performance liquid chromatography (HPLC) pumps and a TSQ Quantum Ultra triple quadrupole MS/MS instrument. For each sample, 5 μL were injected onto an Atlantis T3 column (2.1 mm×150 mm, […] particle size) from Waters. The mobile phase gradient pumped at 0.8 mL/min was used to elute the analytes from the column at 25° C. […] Mobile phase A consisted of 0.1% formic acid in water. Mobile phase B consisted of 0.1% of formic acid in acetonitrile. Data was acquired in positive mode using a HESI interface. The operational parameters for the TSQ Quantum Ultra instrument were a spray voltage of 4000 V, capillary temperature of 380° C., vaporizer temperature 400° C., shealth gas 60 arbitrary units, Aux gas 20 arbitrary units, tube lens 85 and collision gas 1.2 mTorr. […] The peak area was integrated by Xcalibur Quan software. The ratios between the kynurenine generated in the reaction and 2D6-Kynurenine spiked-in internal standard were used to generate percentage inhibition and IC50 values.

IDO1 [2] = molecular target: T1, IDO1; test: IDO1 Cellular Assay in HeLa Cells Stimulated with IFNγ; type: cell-based; conditions: read-out: Hela IC50

T1 sequence (P14902 whole entry): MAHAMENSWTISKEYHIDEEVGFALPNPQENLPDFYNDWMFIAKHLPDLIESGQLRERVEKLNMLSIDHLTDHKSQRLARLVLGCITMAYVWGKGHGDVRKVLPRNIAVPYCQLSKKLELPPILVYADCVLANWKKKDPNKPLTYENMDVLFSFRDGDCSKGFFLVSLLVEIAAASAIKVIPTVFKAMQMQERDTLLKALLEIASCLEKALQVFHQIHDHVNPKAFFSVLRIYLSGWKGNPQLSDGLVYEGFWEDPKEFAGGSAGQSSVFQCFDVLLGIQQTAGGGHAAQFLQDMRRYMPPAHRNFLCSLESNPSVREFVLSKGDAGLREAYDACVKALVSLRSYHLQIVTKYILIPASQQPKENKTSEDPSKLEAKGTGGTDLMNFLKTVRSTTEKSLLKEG

IC50 (IDO1 [1]) | IC50 (IDO1 [2]; about 48 hours) | IC50 (IDO1 [2]) | Compound
3 nM | 1.68 nM | – | Cc1nccc(N2CCCc3nc(C4(NC(=O)c5ccc(F)cc5)CCC4)ccc32)n1 [Example 402, 4-fluoro-N-(1-(5-(2-methylpyrimidin-4-yl)-5,6,7,8-tetrahydro-1,5-naphthyridin-2-yl)cyclobutyl)benzamide]
42 nM | 1.91 nM | – | Cc1cccc(N2CCCc3nc(C4(NC(=O)c5ccc(Cl)cc5)CCC4)ccc32)n1 [Example 405, 4-chloro-N-(1-(5-(6-methylpyridin-2-yl)-5,6,7,8-tetrahydro-1,5-naphthyridin-2-yl)cyclobutyl)benzamide]
480 nM | 20 nM | – | O=C(C1COC1)N1CCCc2cc(C3(C(=O)Nc4ccc(F)cc4)CCC3)ccc21 [Example 115, N-(4-fluorophenyl)-1-[1-(oxetane-3-carbonyl)-1,2,3,4-tetrahydroquinolin-6-yl]cyclobutane-1-carboxamide]
7 nM | 1.93 nM | – | Cc1nccc(N2CCCc3nc(C4(C(=O)Nc5ccc(Cl)cc5)COC4)ccc32)n1 [Example 394, N-(4-chlorophenyl)-3-(5-(2-methylpyrimidin-4-yl)-5,6,7,8-tetrahydro-1,5-naphthyridin-2-yl)oxetane-3-carboxamide]
12 nM | 1.2 nM | – | O=C([C@H]1CCCCO1)N1CCCc2cc(C3(C(=O)Nc4ccc(F)cc4)CCC3)ccc21 (single isomer, unassigned) [Example 106]
89 nM | 1.2 nM | – | CCc1ccnc(C(=O)N2CCCc3nc(C(C)NC(=O)c4ccc(Cl)cc4)ccc32)c1 (stereo not drawn) [Example 286, 4-chloro-N-(1-(5-(4-ethylpicolinoyl)-5,6,7,8-tetrahydro-1,5-naphthyridin-2-yl)ethyl)benzamide]
90 nM | 2 nM | – | O=C(OC1CC1)N1CCc2cc(C3(C(=O)Nc4ccc(Cl)cc4)CCC3)ccc21 [Example 273, cyclopropyl 5-{1-[(4-chlorophenyl)carbamoyl]cyclobutyl}-2,3-dihydro-1H-indole-1-carboxylate]
38 nM | 3.2 nM | – | CC(C)NC(=O)N1CCCc2cc([C@H](C)C(=O)Nc3ccc(F)cc3)ccc21 [Example 89, 6-{(2S)-1-[(4-fluorophenyl)amino]-1-oxopropan-2-yl}-N-(propan-2-yl)-3,4-dihydroquinoline-1(2H)-carboxamide]
100 nM | – | 8.22 nM | CC(NC(=O)c1ccc(Cl)cc1)c1ccc2c(n1)CCCN2c1cccc(CO)n1 (stereo not drawn) [Example 346, 4-chloro-N-(1-(5-(6-(hydroxymethyl)pyridin-2-yl)-5,6,7,8-tetrahydro-1,5-naphthyridin-2-yl)ethyl)benzamide]
71 nM | 2.3 nM | – | CC(NC(=O)c1ccc(F)cc1)c1ccc2c(n1)CCCN2C(=O)c1cc(Cl)ccn1 (stereo not drawn) [Example 277, N-(1-(5-(4-chloropicolinoyl)-5,6,7,8-tetrahydro-1,5-naphthyridin-2-yl)ethyl)-4-fluorobenzamide]
50 nM | 2.37 nM | – | CC(C(=O)Nc1ccc(Cl)cc1)c1ccc2c(c1)CC(F)CN2C(=O)c1cccc(Cl)c1 (single isomer, unassigned) [Example 256, 2-(1-(3-chlorobenzoyl)-3-fluoro-1,2,3,4-tetrahydroquinolin-6-yl)-N-(4-chlorophenyl)propanamide]
254 nM | – | 3.62 nM | CC(C(=O)Nc1ccc(F)cc1)c1ccc2c(n1)CCCN2c1ccnc(C2CC2)n1 (stereo not drawn) [Example 365, 2-(5-(2-cyclopropylpyrimidin-4-yl)-5,6,7,8-tetrahydro-1,5-naphthyridin-2-yl)-N-(4-fluorophenyl)propanamide]
131 nM | 1.6 nM | – | O=C(Nc1ccc(F)cc1)C1(c2ccc3c(n2)CCCN3c2ccnc(C(F)(F)F)n2)COC1 [Example 393, N-(4-fluorophenyl)-3-(5-(2-(trifluoromethyl)pyrimidin-4-yl)-5,6,7,8-tetrahydro-1,5-naphthyridin-2-yl)oxetane-3-carboxamide]
6 nM | 1.8 nM | – | Cc1ccnc(C(=O)N2CCCc3nc(C(C)NC(=O)c4ccc(Cl)cc4)ccc32)n1 (stereo not drawn) [Example 287, 4-chloro-N-(1-(5-(4-methylpyrimidine-2-carbonyl)-5,6,7,8-tetrahydro-1,5-naphthyridin-2-yl)ethyl)benzamide]
90 nM | 1.2 nM | – | Cc1nc(C(=O)N2CCCc3cc(C4(C(=O)Nc5ccc(F)cc5)CCC4)ccc32)no1 [Example 100, N-(4-fluorophenyl)-1-[1-(5-methyl-1,2,4-oxadiazole-3-carbonyl)-1,2,3,4-tetrahydroquinolin-6-yl]cyclobutane-1-carboxamide]
545 nM | 7.9 nM | – | CC(C(=O)Nc1ccc(F)cc1)c1ccc2c(c1)CCCN2Cc1cccc(Cl)c1 (racemic) [Example 224, 2-{1-[(3-chlorophenyl)methyl]-1,2,3,4-tetrahydroquinolin-6-yl}-N-(4-fluorophenyl)propanamide]
67 nM | 6.3 nM | – | CC(NC(=O)c1ccc(F)cc1)c1ccc2c(n1)CCCN2C(=O)c1ccn(C)n1 (stereo not drawn) [Example 138, 4-fluoro-N-{1-[5-(1-methyl-1H-pyrazole-3-carbonyl)-5,6,7,8-tetrahydro-1,5-naphthyridin-2-yl]ethyl}benzamide]
1140 nM | 7.3 nM | – | CC(NC(=O)c1ccc(F)cc1)c1ccc2c(n1)CCCN2C(=O)c1c(Cl)cccc1Cl (stereo not drawn) [Example 150, N-{1-[5-(2,6-dichlorobenzene-1-carbonyl)-5,6,7,8-tetrahydro-1,5-naphthyridin-2-yl]ethyl}-4-fluorobenzamide]
149 nM | 4.7 nM | – | CC(C(=O)Nc1ccc(F)cc1)c1ccc2c(c1)CCCN2Cc1cccc(Cl)c1 (single isomer, unassigned) [Example 225, 2-{1-[(3-chlorophenyl)methyl]-1,2,3,4-tetrahydroquinolin-6-yl}-N-(4-fluorophenyl)propanamide]
245 nM | 3.5 nM | – | CC(NC(=O)c1ccc(F)cc1)c1ccc2c(n1)CCCN2Cc1cccc(Cl)c1 (stereo not drawn) [Example 229, N-(1-{5-[(3-chlorophenyl)methyl]-5,6,7,8-tetrahydro-1,5-naphthyridin-2-yl}ethyl)-4-fluorobenzamide]
135 nM | 7.3 nM | – | CC(NC(=O)c1ccc(F)cc1)c1ccc2c(n1)CCCN2C(=O)c1cc(C(F)F)ccn1 (stereo not drawn) [Example 279, N-(1-(5-(4-(difluoromethyl)picolinoyl)-5,6,7,8-tetrahydro-1,5-naphthyridin-2-yl)ethyl)-4-fluorobenzamide]
12 nM | – | 1.7 nM | Cc1nccc(N2CCCc3nc(C4(C(=O)Nc5ccc(F)cc5)CC4(F)F)ccc32)n1 (single isomer, unassigned) [Example 422, 2,2-difluoro-N-(4-fluorophenyl)-1-(5-(2-methylpyrimidin-4-yl)-5,6,7,8-tetrahydro-1,5-naphthyridin-2-yl)cyclopropanecarboxamide]
150 nM | 4.1 nM | – | CC(C(=O)Nc1ccc(F)cc1)c1ccc2c(c1)CCCN2C(=O)C1CC1(F)F (stereo not drawn) [Example 67, 2-[1-(2,2-difluorocyclopropane-1-carbonyl)-1,2,3,4-tetrahydroquinolin-6-yl]-N-(4-fluorophenyl)propanamide]
4 nM | 1.87 nM | – | O=C(Nc1ccc(F)cc1)C1(c2ccc3c(n2)CCCN3c2ccnc(C3CC3)n2)CCC1 [Example 401, 1-(5-(2-cyclopropylpyrimidin-4-yl)-5,6,7,8-tetrahydro-1,5-naphthyridin-2-yl)-N-(4-fluorophenyl)cyclobutane-1-carboxamide]
46 nM | – | 1.61 nM | CC(NC(=O)c1ccc(Cl)cc1)c1ccc2c(n1)CCCN2C(=O)OCC(F)(F)F (stereo not drawn) [Example 310]
11 nM | 1.7 nM | – | O=C(C1CC1)N1CCCc2cc(C3(C(=O)Nc4ccc(F)cc4)CCC3)ccc21 [Example 97, 1-[1-(cyclopropanecarbonyl)-1,2,3,4-tetrahydroquinolin-6-yl]-N-(4-fluorophenyl)cyclobutane-1-carboxamide]
33 nM | 3.8 nM | – | CC(C)CC(=O)N1CCCc2cc([C@@H](C)NC(=O)c3ccc(Cl)cc3)ccc21 (racemic) [Example 28, 4-chloro-N-{(1R)-1-[1-(3-methyl-butanoyl)-1,2,3,4-tetrahydroquinolin-6-yl]ethyl}benzamide]
